Common to all, as to format: cell-based
The target in assay [1] is T1, hY2R (Homo sapiens, UniProt P49146).
T1 sequence (P49146 1-381): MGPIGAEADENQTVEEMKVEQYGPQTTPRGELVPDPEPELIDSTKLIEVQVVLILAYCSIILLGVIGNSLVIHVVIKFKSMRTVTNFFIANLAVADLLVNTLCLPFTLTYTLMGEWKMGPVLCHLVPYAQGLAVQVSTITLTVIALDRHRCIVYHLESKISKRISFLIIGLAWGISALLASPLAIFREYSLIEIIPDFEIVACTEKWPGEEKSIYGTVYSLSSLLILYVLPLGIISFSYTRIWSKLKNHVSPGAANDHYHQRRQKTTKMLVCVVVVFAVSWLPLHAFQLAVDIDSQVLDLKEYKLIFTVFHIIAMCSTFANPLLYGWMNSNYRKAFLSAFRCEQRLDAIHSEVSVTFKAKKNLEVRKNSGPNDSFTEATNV
Description: Inositol phosphate accumulation assay, hY2R. Particulars: for Emax: read-out: hY2R Emax.

Assay [2] has as its target T2, hY1R (Homo sapiens, UniProt P25929).
T2 sequence (P25929 1-384): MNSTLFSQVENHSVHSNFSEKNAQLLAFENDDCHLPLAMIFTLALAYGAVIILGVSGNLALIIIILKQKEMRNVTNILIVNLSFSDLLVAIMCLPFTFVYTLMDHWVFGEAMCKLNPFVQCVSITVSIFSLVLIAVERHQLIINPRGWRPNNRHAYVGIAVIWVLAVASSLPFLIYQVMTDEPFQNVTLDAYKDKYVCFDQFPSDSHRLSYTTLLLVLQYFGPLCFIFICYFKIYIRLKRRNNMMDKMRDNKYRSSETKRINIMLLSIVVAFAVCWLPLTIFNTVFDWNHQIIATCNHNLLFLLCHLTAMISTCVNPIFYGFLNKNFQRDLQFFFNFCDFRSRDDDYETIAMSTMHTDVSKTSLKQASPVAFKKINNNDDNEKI
Description: Inositol phosphate accumulation assay, hY1R. Particulars: for Emax: read-out: hY1R Emax.

Assay [3] has as its target T3, hY5R (Homo sapiens, UniProt Q15761).
T3 sequence (Q15761 1-445): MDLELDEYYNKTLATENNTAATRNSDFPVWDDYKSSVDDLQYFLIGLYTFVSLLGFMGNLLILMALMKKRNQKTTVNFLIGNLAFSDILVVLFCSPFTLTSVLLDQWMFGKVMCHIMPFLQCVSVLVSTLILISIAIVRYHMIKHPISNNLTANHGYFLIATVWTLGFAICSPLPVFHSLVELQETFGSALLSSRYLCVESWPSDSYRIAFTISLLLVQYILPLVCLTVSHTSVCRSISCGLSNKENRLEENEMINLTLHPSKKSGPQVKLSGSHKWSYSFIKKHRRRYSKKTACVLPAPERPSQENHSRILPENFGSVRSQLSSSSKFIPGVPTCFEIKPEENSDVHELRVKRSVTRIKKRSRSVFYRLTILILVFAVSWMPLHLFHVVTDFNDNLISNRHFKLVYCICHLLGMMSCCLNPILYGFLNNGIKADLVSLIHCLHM
The assay can be described thus: Inositol phosphate accumulation assay, hY5R. Particulars: for Emax: read-out: hY5R Emax.

The target in assay [4] is hY4R (Homo sapiens, UniProt P50391). The assay can be described thus: Inositol phosphate accumulation assay, hY4R. Particulars: for Emax: read-out: hY4R Emax.

A word on the Emax: it is the size of the effect at its maximum, as opposed to the concentration needed. What is called EC50 is the concentration needed to bring the measured effect to its halfway point.

Numbered stars: 1 amine (or outer) side, 2 acyl side, 3 side chain; on linkers, the order of the positions; unused ones are H or OH. Side chains are listed from the residue outwards. Ends that are not written are not given here. Peptide text beside a SMILES is read from it. * marks the point of attachment. γGlu = O=C(O)[C@H](CCC(=O)[*:2])N[*:1]; Palmitoyl = CCCCCCCCCCCCCCCC(=O)*; Octanoyl = CCCCCCCC(=O)*; Propionyl = CCC(=O)* A value given as a limit tells only on which side of the number the result lay.

Chain of hY4R (P50391 whole entry): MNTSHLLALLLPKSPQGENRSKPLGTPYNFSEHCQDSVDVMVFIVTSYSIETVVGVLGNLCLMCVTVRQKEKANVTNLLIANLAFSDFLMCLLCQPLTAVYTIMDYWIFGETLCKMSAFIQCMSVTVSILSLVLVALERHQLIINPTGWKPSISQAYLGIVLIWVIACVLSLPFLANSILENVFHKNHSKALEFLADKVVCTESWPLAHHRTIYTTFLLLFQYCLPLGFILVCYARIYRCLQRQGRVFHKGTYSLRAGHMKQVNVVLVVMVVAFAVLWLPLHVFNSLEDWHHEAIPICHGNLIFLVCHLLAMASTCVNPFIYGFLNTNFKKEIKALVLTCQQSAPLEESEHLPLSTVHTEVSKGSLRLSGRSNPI

Regarding `CC[C@H](C)[C@H](NC(=O)[C@H](Cc1ccc(O)cc1)NC(=O)[C@H](CCCNC(=N)N)NC(=O)[C@H](CCCNC(=N)N)NC(=O)[C@H](CC(C)C)NC(=O)[C@H](CC(=O)O)NC(=O)[C@H](C)NC(=O)[C@H](C)NC(=O)[C@H](Cc1ccc(O)cc1)NC(=O)[C@H](CCC(N)=O)NC(=O)[C@H](C)NC(=O)[C@H](CCSC)NC(=O)[C@H](CCC(N)=O)NC(=O)[C@H](CCC(=O)O)NC(=O)[C@@H]1CCCN1C(=O)[C@@H](NC(=O)[C@H](C)NC(=O)[C@H](CC(N)=O)NC(=O)[C@H](CC(=O)O)NC(=O)CNC(=O)[C@@H]1CCCN1C(=O)[C@H](Cc1ccc(O)cc1)NC(=O)[C@@H](NC(=O)[C@@H]1CCCN1C(=O)[C@H](CCC(=O)O)NC(=O)[C@H](CC(C)C)NC(=O)[C@@H]1CCCN1C(=O)[C@H](C)N)C(C)C)[C@@H](C)O)C(=O)N[C@@H](CC(N)=O)C(=O)N[C@@H](CCSC)C(=O)N[C@@H](CC(C)C)C(=O)N[C@H](C(=O)N[C@@H](CCCNC(=N)N)C(=O)N1CCC[C@H]1C(=O)N[C@@H](CCCNC(=N)N)C(=O)N[C@@H](Cc1ccc(O)cc1)C(N)=O)[C@@H](C)O` [1a, hPP, reference compound], the Emax stood at 96 ± 5% in assay [1], 95 ± 3% in assay [2] and 90 ± 5% in assay [3].

For the compound `CCC(=O)N[C@@H](CCC(=O)NCCCC[C@H](NC(=O)[C@H](CC(N)=O)NC(=O)[C@@H](NC(=O)[C@H](Cc1ccc(O)cc1)NC(=O)[C@H](CCCNC(=N)N)NC(=O)[C@H](CCCNC(=N)N)NC(=O)[C@H](CC(C)C)NC(=O)[C@H](CC(=O)O)NC(=O)[C@H](C)NC(=O)[C@H](C)NC(=O)[C@H](Cc1ccc(O)cc1)NC(=O)[C@H](CCC(N)=O)NC(=O)[C@H](C)NC(=O)[C@H](CCSC)NC(=O)[C@H](CCC(N)=O)NC(=O)[C@H](CCC(=O)O)NC(=O)[C@@H]1CCCN1C(=O)[C@@H](NC(=O)[C@H](C)NC(=O)[C@H](CC(N)=O)NC(=O)[C@H](CC(=O)O)NC(=O)CNC(=O)[C@@H]1CCCN1C(=O)[C@H](Cc1ccc(O)cc1)NC(=O)[C@@H](NC(=O)[C@@H]1CCCN1C(=O)[C@H](CCC(=O)O)NC(=O)[C@H](CC(C)C)NC(=O)[C@@H]1CCCN1)C(C)C)[C@@H](C)O)[C@@H](C)CC)C(=O)N[C@@H](CC(C)C)C(=O)N[C@H](C(=O)N[C@@H](CCCNC(=N)N)C(=O)N1CCC[C@H]1C(=O)N[C@@H](CCCNC(=N)N)C(=O)N[C@@H](Cc1ccc(O)cc1)C(N)=O)[C@@H](C)O)C(=O)O` [15a, [K^30(E-Prop)]hPP2–36] (H-PLEPVYPGDNATPEQMAQYAADLRRYINK([γGlu-Propionyl])LTRPRY-NH2), the EC50 in assay [1] is greater than 1000 nM; in assay [2], greater than 1000 nM; in assay [4], 1.3 nM; in assay [3], 937 nM. Moreover, the Emax in assay [1] turned out to be 88 ± 6%; in assay [2], 99 ± 4%; in assay [4], 88 ± 4%; in assay [3], 70 ± 3%.

Regarding `CCCCCCCC(=O)N[C@@H](CCC(=O)NCCCC[C@H](NC(=O)[C@H](CC(N)=O)NC(=O)[C@@H](NC(=O)[C@H](Cc1ccc(O)cc1)NC(=O)[C@H](CCCNC(=N)N)NC(=O)[C@H](CCCNC(=N)N)NC(=O)[C@H](CC(C)C)NC(=O)[C@H](CC(=O)O)NC(=O)[C@H](C)NC(=O)[C@H](C)NC(=O)[C@H](Cc1ccc(O)cc1)NC(=O)[C@H](CCC(N)=O)NC(=O)[C@H](C)NC(=O)[C@H](CCSC)NC(=O)[C@H](CCC(N)=O)NC(=O)[C@H](CCC(=O)O)NC(=O)[C@@H]1CCCN1C(=O)[C@@H](NC(=O)[C@H](C)NC(=O)[C@H](CC(N)=O)NC(=O)[C@H](CC(=O)O)NC(=O)CNC(=O)[C@@H]1CCCN1C(=O)[C@H](Cc1ccc(O)cc1)NC(=O)[C@@H](NC(=O)[C@@H]1CCCN1C(=O)[C@H](CCC(=O)O)NC(=O)[C@H](CC(C)C)NC(=O)[C@@H]1CCCN1)C(C)C)[C@@H](C)O)[C@@H](C)CC)C(=O)N[C@@H](CC(C)C)C(=O)N[C@H](C(=O)N[C@@H](CCCNC(=N)N)C(=O)N1CCC[C@H]1C(=O)N[C@@H](CCCNC(=N)N)C(=O)N[C@@H](Cc1ccc(O)cc1)C(N)=O)[C@@H](C)O)C(=O)O` [16a, [K^30(E-Capr)]hPP2–36] (H-PLEPVYPGDNATPEQMAQYAADLRRYINK([γGlu-Octanoyl])LTRPRY-NH2), the EC50 in assay [1] is greater than 1000 nM; in assay [2], greater than 1000 nM; in assay [4], 1.2 nM; in assay [3] it was 386 nM. The Emax is 85 ± 5% in assay [1], 84 ± 6% in assay [2], 82 ± 4% in assay [4] and 75 ± 5% in assay [3].

As for `CCCCCCCCCCCCCCCC(=O)N[C@@H](CCC(=O)NCCCC[C@H](NC(=O)[C@H](CC(N)=O)NC(=O)[C@@H](NC(=O)[C@H](Cc1ccc(O)cc1)NC(=O)[C@H](CCCNC(=N)N)NC(=O)[C@H](CCCNC(=N)N)NC(=O)[C@H](CC(C)C)NC(=O)[C@H](CC(=O)O)NC(=O)[C@H](C)NC(=O)[C@H](C)NC(=O)[C@H](Cc1ccc(O)cc1)NC(=O)[C@H](CCC(N)=O)NC(=O)[C@H](C)NC(=O)[C@H](CCSC)NC(=O)[C@H](CCC(N)=O)NC(=O)[C@H](CCC(=O)O)NC(=O)[C@@H]1CCCN1C(=O)[C@@H](NC(=O)[C@H](C)NC(=O)[C@H](CC(N)=O)NC(=O)[C@H](CC(=O)O)NC(=O)CNC(=O)[C@@H]1CCCN1C(=O)[C@H](Cc1ccc(O)cc1)NC(=O)[C@@H](NC(=O)[C@@H]1CCCN1C(=O)[C@H](CCC(=O)O)NC(=O)[C@H](CC(C)C)NC(=O)[C@@H]1CCCN1)C(C)C)[C@@H](C)O)[C@@H](C)CC)C(=O)N[C@@H](CC(C)C)C(=O)N[C@H](C(=O)N[C@@H](CCCNC(=N)N)C(=O)N1CCC[C@H]1C(=O)N[C@@H](CCCNC(=N)N)C(=O)N[C@@H](Cc1ccc(O)cc1)C(N)=O)[C@@H](C)O)C(=O)O` [18a, [K^30(E-Pam)]hPP2–36] (H-PLEPVYPGDNATPEQMAQYAADLRRYINK([γGlu-Palmitoyl])LTRPRY-NH2), the EC50 in assay [1] was 21.1 nM; in assay [2], 76.2 nM; in assay [4] it was 1.2 nM; in assay [3], 1.6 nM. Further, the Emax in assay [1] came to 92 ± 3%; in assay [2] it was 85 ± 3%; in assay [4], 78 ± 4%; in assay [3] it was 75 ± 5%.

For the compound `CCC(=O)N[C@@H](CCC(=O)NCCCC[C@H](NC(=O)[C@H](C)NC(=O)[C@H](Cc1ccc(O)cc1)NC(=O)[C@H](CCC(N)=O)NC(=O)[C@H](C)NC(=O)[C@H](CCSC)NC(=O)[C@H](CCC(N)=O)NC(=O)[C@H](CCC(=O)O)NC(=O)[C@@H]1CCCN1C(=O)[C@@H](NC(=O)[C@H](C)NC(=O)[C@H](CC(N)=O)NC(=O)[C@H](CC(=O)O)NC(=O)CNC(=O)[C@@H]1CCCN1C(=O)[C@H](Cc1ccc(O)cc1)NC(=O)[C@@H](NC(=O)[C@@H]1CCCN1C(=O)[C@H](CCC(=O)O)NC(=O)[C@H](CC(C)C)NC(=O)[C@@H]1CCCN1)C(C)C)[C@@H](C)O)C(=O)N[C@@H](CC(=O)O)C(=O)N[C@@H](CC(C)C)C(=O)N[C@@H](CCCNC(=N)N)C(=O)N[C@@H](CCCNC(=N)N)C(=O)N[C@@H](Cc1ccc(O)cc1)C(=O)N[C@H](C(=O)N[C@@H](CC(N)=O)C(=O)N[C@@H](CCSC)C(=O)N[C@@H](CC(C)C)C(=O)N[C@H](C(=O)N[C@@H](CCCNC(=N)N)C(=O)N1CCC[C@H]1C(=O)N[C@@H](CCCNC(=N)N)C(=O)N[C@@H](Cc1ccc(O)cc1)C(N)=O)[C@@H](C)O)[C@@H](C)CC)C(=O)O` [compound 9, [K^22(E-Prop)]hPP2–36] (H-PLEPVYPGDNATPEQMAQYAK([γGlu-Propionyl])DLRRYINMLTRPRY-NH2), the EC50 in assay [1] is greater than 1000 nM; in assay [2], greater than 1000 nM; in assay [4], 1.1 nM; in assay [3] it was 21.9 nM. The Emax in assay [1] was found to be 88 ± 6%; in assay [2], 92 ± 4%; in assay [4], 96 ± 6%; in assay [3], 83 ± 2%.

Take “PLEPVYPGDNATPEQMAQYAADLRRYINKLTRPRY-NH2 [14a, [K^30]hPP2–36]”: the EC50 in assay [2] is greater than 1000 nM; in assay [4] it was 1.4 nM; in assay [3] it was 23.9 nM. In addition, the Emax in assay [2] came out at 93 ± 5%; in assay [4], 95 ± 4%; in assay [3], 79 ± 4%.

For the origin of these results see paper PMC5518309 (ChemMedChem, 2014).
